Measurements taken from ChEMBL document CHEMBL3885881, “DrugMatrix”.

Species: Rattus norvegicus
Assay: DrugMatrix - Regimen: Daily Repeat
Type: toxicity, organism-based, Sprague-Dawley
Set-up: regimen Daily Repeat, gender Male, age 6-8 weeks
Conditions: in vivo, po, route oral GAVAGE, vehicle 100 % WATER; for ABSOLUTE BASOPHIL / ABSOLUTE EOSINOPHIL / ABSOLUTE LYMPHOCYTE / ABSOLUTE MONOCYTE / ABSOLUTE SEGMENTED NEUTROPHIL / BASOPHIL / EOSINOPHIL / ERYTHROCYTE COUNT / HEMATOCRIT / LEUKOCYTE COUNT / LYMPHOCYTE / MEAN CORPUSCULAR HEMOGLOBIN / MEAN CORPUSCULAR HEMOGLOBIN CONCENTRATION / MEAN CORPUSCULAR VOLUME / MONOCYTE / NEUTROPHIL / NUCLEATED RED BLOOD CELLS / PLATELET COUNT: tissue Blood; for ALANINE AMINOTRANSFERASE / ALBUMIN / ALKALINE PHOSPHATASE / ASPARTATE AMINOTRANSFERASE / CARBON DIOXIDE / CHLORIDE / CHOLESTEROL / CREATINE PHOSPHOKINASE / CREATININE / LIPASE / POTASSIUM / TOTAL BILIRUBIN / TOTAL PROTEIN / BLOOD UREA NITROGEN: tissue Plasma
[1] = 0 mg/kg, 72 h, dose level Control, time 3 day
[2] = 0 mg/kg, 120 h, dose level Control, time 5 day
[3] = 44 mg/kg, 72 h, dose level Low, time 3 day
[4] = 44 mg/kg, 120 h, dose level Low, time 5 day

NC(=O)c1ncn([C@@H]2O[C@H](CO)[C@@H](O)[C@H]2O)n1 [RIBAVIRIN]
ABSOLUTE BASOPHIL [1]: 0 CELLS/uL
ABSOLUTE EOSINOPHIL [1]: 40 CELLS/uL
ABSOLUTE LYMPHOCYTE [1]: 13599.5 CELLS/uL
ABSOLUTE MONOCYTE [1]: 239.33 CELLS/uL
ABSOLUTE SEGMENTED NEUTROPHIL [1]: 1021.17 CELLS/uL
BASOPHIL [1]: 0%
EOSINOPHIL [1]: 0.33%
ERYTHROCYTE COUNT [1]: 5.71 x10E6/uL
HEMATOCRIT [1]: 36.35%
LEUKOCYTE COUNT [1]: 14.9 x10E3/uL
LYMPHOCYTE [1]: 91%
MEAN CORPUSCULAR HEMOGLOBIN [1]: 24.62 pg
MEAN CORPUSCULAR HEMOGLOBIN CONCENTRATION [1]: 38.65 G/DL
MEAN CORPUSCULAR VOLUME [1]: 63.7 fL
MONOCYTE [1]: 1.5%
NEUTROPHIL [1]: 7.17%
NUCLEATED RED BLOOD CELLS [1]: 0.33 /100WBC
PLATELET COUNT [1]: 1225.5 x10E3/uL
ALANINE AMINOTRANSFERASE [1]: 48.5 u/L
ALBUMIN [1]: 4.18 G/DL
ALKALINE PHOSPHATASE [1]: 390.83 u/L
ASPARTATE AMINOTRANSFERASE [1]: 89 u/L
CARBON DIOXIDE [1]: 24.83 mmol/L
CHLORIDE [1]: 100.83 MEQ/L
CHOLESTEROL [1]: 72.5 mg/dL
CREATINE PHOSPHOKINASE [1]: 503 u/L
CREATININE [1]: 0.2 mg/dL
LIPASE [1]: 9.83 u/L
POTASSIUM [1]: 6.16 MEQ/L
TOTAL BILIRUBIN [1]: 0.2 mg/dL
TOTAL PROTEIN [1]: 5.8 G/DL
ABSOLUTE BASOPHIL [2]: 0 CELLS/uL
ABSOLUTE EOSINOPHIL [2]: 21 CELLS/uL
ABSOLUTE LYMPHOCYTE [2]: 14288.5 CELLS/uL
ABSOLUTE MONOCYTE [2]: 205.33 CELLS/uL
ABSOLUTE SEGMENTED NEUTROPHIL [2]: 968.5 CELLS/uL
BASOPHIL [2]: 0%
EOSINOPHIL [2]: 0.17%
ERYTHROCYTE COUNT [2]: 5.83 x10E6/uL
HEMATOCRIT [2]: 36.53%
LEUKOCYTE COUNT [2]: 15.48 x10E3/uL
LYMPHOCYTE [2]: 92%
MEAN CORPUSCULAR HEMOGLOBIN [2]: 24.72 pg
MEAN CORPUSCULAR HEMOGLOBIN CONCENTRATION [2]: 39.43 G/DL
MEAN CORPUSCULAR VOLUME [2]: 62.68 fL
MONOCYTE [2]: 1.33%
NEUTROPHIL [2]: 6.5%
NUCLEATED RED BLOOD CELLS [2]: 0.17 /100WBC
PLATELET COUNT [2]: 1280.5 x10E3/uL
ALANINE AMINOTRANSFERASE [2]: 50 u/L
ALBUMIN [2]: 4.28 G/DL
ALKALINE PHOSPHATASE [2]: 380.17 u/L
ASPARTATE AMINOTRANSFERASE [2]: 82.67 u/L
BLOOD UREA NITROGEN [2]: 15.33 mg/dL
CARBON DIOXIDE [2]: 27.17 mmol/L
CHLORIDE [2]: 100.33 MEQ/L
CHOLESTEROL [2]: 60.67 mg/dL
CREATINE PHOSPHOKINASE [2]: 441.5 u/L
CREATININE [2]: 0.16 mg/dL
LIPASE [2]: 9.17 u/L
POTASSIUM [2]: 6.86 MEQ/L
TOTAL BILIRUBIN [2]: 0.2 mg/dL
TOTAL PROTEIN [2]: 6.12 G/DL
ABSOLUTE BASOPHIL [3]: 0 CELLS/uL
ABSOLUTE EOSINOPHIL [3]: 33.67 CELLS/uL
ABSOLUTE LYMPHOCYTE [3]: 13109.33 CELLS/uL
ABSOLUTE MONOCYTE [3]: 126 CELLS/uL
ABSOLUTE SEGMENTED NEUTROPHIL [3]: 1164.33 CELLS/uL
BASOPHIL [3]: 0%
EOSINOPHIL [3]: 0.33%
ERYTHROCYTE COUNT [3]: 5.44 x10E6/uL
HEMATOCRIT [3]: 33.17%
LEUKOCYTE COUNT [3]: 14.43 x10E3/uL
LYMPHOCYTE [3]: 91.33%
MEAN CORPUSCULAR HEMOGLOBIN [3]: 23.47 pg
MEAN CORPUSCULAR HEMOGLOBIN CONCENTRATION [3]: 38.53 G/DL
MEAN CORPUSCULAR VOLUME [3]: 60.97 fL
MONOCYTE [3]: 0.67%
NEUTROPHIL [3]: 7.67%
NUCLEATED RED BLOOD CELLS [3]: 0 /100WBC
PLATELET COUNT [3]: 1365.67 x10E3/uL
ALANINE AMINOTRANSFERASE [3]: 53 u/L
ALBUMIN [3]: 4.3 G/DL
ALKALINE PHOSPHATASE [3]: 371.67 u/L
ASPARTATE AMINOTRANSFERASE [3]: 93.67 u/L
BLOOD UREA NITROGEN [3]: 13.67 mg/dL
CARBON DIOXIDE [3]: 27.67 mmol/L
CHLORIDE [3]: 101 MEQ/L
CHOLESTEROL [3]: 71.33 mg/dL
CREATINE PHOSPHOKINASE [3]: 286.67 u/L
CREATININE [3]: 0.17 mg/dL
LIPASE [3]: 9 u/L
POTASSIUM [3]: 6.94 MEQ/L
TOTAL BILIRUBIN [3]: 0.27 mg/dL
TOTAL PROTEIN [3]: 5.97 G/DL
ABSOLUTE BASOPHIL [4]: 0 CELLS/uL
ABSOLUTE EOSINOPHIL [4]: 0 CELLS/uL
ABSOLUTE LYMPHOCYTE [4]: 17320.33 CELLS/uL
ABSOLUTE MONOCYTE [4]: 316 CELLS/uL
ABSOLUTE SEGMENTED NEUTROPHIL [4]: 1397 CELLS/uL
BASOPHIL [4]: 0%
EOSINOPHIL [4]: 0%
ERYTHROCYTE COUNT [4]: 5.46 x10E6/uL
HEMATOCRIT [4]: 34.3%
LEUKOCYTE COUNT [4]: 19.03 x10E3/uL
LYMPHOCYTE [4]: 91%
MEAN CORPUSCULAR HEMOGLOBIN [4]: 24.7 pg
MEAN CORPUSCULAR HEMOGLOBIN CONCENTRATION [4]: 39.23 G/DL
MEAN CORPUSCULAR VOLUME [4]: 62.87 fL
MONOCYTE [4]: 1.67%
NEUTROPHIL [4]: 7.33%
